Several values for one entry are separate records, joined by “and”; a condition that tells them apart may be missing. Identical values can stand only once. Like-named read-outs stand apart in the source and are kept apart here.
Columns and labels:
hypogonadism in men = experiment: Study of testosterone cypionate injections every 7 days (with anastrozole) in men, followed by blood work until stabilization; assay type: in vivo, human; conditions: for TT at week 5 / TT once stable: average total testosterone; for increase in PSA from start of treatment to stabilization / PSA level at stabilization / Hemoglobin at 5 weeks / Hemoglobin at stabilization: average; for average decrease in A1c: TC and anastrozole dosing
Excerpt: Patient hemoglobin and total testosterone (TT) levels were used in this Study to determine when a patient becomes “stable” on treatment. The terms “stable”, “stability”, “stabilized” and “stabilization” are defined in this Study as “the point at which a patient's symptoms have resolved, polycythemia has stopped, and TC dosage has remained consistent for at least 3 months.” Polycythemia associated with testosterone replacement therapy (TRT) has commonly been controlled through frequent patient blood donation. […] Several TT “normal” ranges can be found in the literature. For example, the Endocrine Society identifies the normal range for TT levels in males to be 264-916 ng/dL (1,17). However, LabCorp Diagnostics has used the previously accepted “normal” range of 348-1197 ng/dL until 2017 and Quest Diagnostics uses a reference range of 250-1110 ng/dL.
Patients' responses to TC injections administered every 7 days were tracked and the resulting effects of TC dosing on cholesterol, A1c, and PSA levels were documented once stable TT levels were reached.
Subjects: Two cohorts were studied. The two cohorts studied were males that had previously been on TRT and males who had never been on any form of TRT. Blood work was collected from all patients at their initial visit, after 1 month of treatment, after 3 months of treatment, and then at 6 months, 9 months, 12 months, etc. as patients continued treatment. Data was collected for each cohort including the length of time that it took to stabilize on treatment and the average dosage injected weekly once patients had reached stabilization.
However, in this Study TC injections were administered every 7 days, and blood samples were collected at 7 days post-TC injection and after at least 4 consecutive weeks of injections. […] Collecting blood samples at the 4-week mark provides more consistent, accurate, and useful information regarding the TT blood level than if the samples are collected earlier.
Blood samples were then sent to an outsourced laboratory, Lab Tech Diagnostics. Samples were drawn at the patient's initial visit, after their first 4 consecutive TC injections, after 3 months of treatment, and at 3-month intervals thereafter. Testosterone, estradiol, and hemoglobin levels were tracked with every blood sample. PSA and cholesterol levels were checked every 3 months. A1c levels were checked with initial blood work, and then once per year if A1c was within normal limits (WNL) or every 3 months if A1c was >5.6.
Given, the primary goal was to determine a stabilization point such that the patient achieved maximum benefit with minimal side effects (e.g., elimination of polycythemia) from the treatment, the challenge was to identify a TC dose at which the patient's hemoglobin stopped increasing. […] Patients were advised to start 81 mg aspirin daily if their hemoglobin started increasing after starting treatment. […] Dosage adjustments of TC were made in 20 mg (0.1 ml) increments. Assessment of new dosages were not made until after four consecutive injections at the new dose and at 7 days after their last injection. After analysis of data, there were notable similarities in the Total Testosterone, estradiol, and hemoglobin levels once patients reached stabilization on treatment. There were also differences seen between patients that had been on TRT in the past through other clinics and those that started treatment with our clinic. Patients who had previously been on TRT took longer to stabilize on therapy than those who had never been on TRT.

[1] = in humans; cited from earlier work
[2] = well-known value; cited from earlier work
[3] = patients never on TRT, starting TT level 347.77 ng/dl
[4] = patients previously on TRT, starting TT level 479.83 ng/dl
[5] = patients never on TRT, initial 15.06 g/dl
[6] = patients previously on TRT, initial 15.78 g/dl

In the case of `CC(C)(C#N)c1cc(Cn2cncn2)cc(C(C)(C)C#N)c1` [anastrozole], the “side effects when anastrozole was started at the beginning of treatment” value (hypogonadism in men; in vivo) is listed as “frequently experienced hot flashes or joint pains” and the half-life [1] is listed as 30 to 60 h.

For `CC(=O)Oc1ccccc1C(=O)O` [aspirin], the “effect of adding aspirin on hemoglobin levels” value (hypogonadism in men; 81 mg daily, patients on TC whose hemoglobin started increasing) was “helped to either decrease hemoglobin levels or slow the rate of increase of hemoglobin levels”.

With `C[C@]12CC[C@H]3[C@@H](CCC4=CC(=O)CC[C@@]43C)[C@@H]1CC[C@@H]2OC(=O)CCC1CCCC1` [TC, testosterone cypionate] the “symptoms at low 7-day testosterone level” value (hypogonadism in men; 7-day testosterone level <600) was “almost all patients were still experiencing symptoms of testicular hypofunction”, the “patients who developed prostate cancer” value (hypogonadism in men; 60 patients in the study) was “No patients” and the “common increase in cholesterol levels seen with excessive TC dosing” value (hypogonadism in men; TC and anastrozole dosing as described in the study) was “Elimination”. For the same compound, the “side effects seen at higher TT levels” value (hypogonadism in men; TT levels >1050) was “acne, aggression, erectile dysfunction, difficulty losing weight, extremely elevated estradiol levels, hair loss, and increased body hair”, the “TT level at which patients stabilized (range)” value (hypogonadism in men; all patients in the study, drawn 7 days after injection) was 605 to 1051 ng/dL and the “TT at week 5” value (hypogonadism in men; [3]) was 705.43 ng/dL. For the same compound, the TT once stable (hypogonadism in men; [3]) was 794.53 ng/dL, the “TT at week 5” value (hypogonadism in men; [4]) was 805.9 ng/dL and 805.90 ng/dL and the TT once stable (hypogonadism in men; [4]) was 780.1 ng/dL and 780.10 ng/dL. For the same compound, the “increase in PSA from start of treatment to stabilization” value (hypogonadism in men; patients never on TRT) was 26.89%, the “PSA level at stabilization” value (hypogonadism in men; patients never on TRT, initial 0.859 ng/ml) was 1.090 ng/mL and the “Hemoglobin at 5 weeks” value (hypogonadism in men; [5]) was 15.33 g/dL. The Hemoglobin at stabilization (hypogonadism in men; [5]) was 15.79 g/dL, the “increase in PSA from start of treatment to stabilization” value (hypogonadism in men; patients previously on TRT) was 14.36% and the “PSA level at stabilization” value (hypogonadism in men; patients previously on TRT, initial 1.017 ng/ml) was 1.163 ng/mL. The “Hemoglobin at 5 weeks” value (hypogonadism in men; [6]) was 16.22 g/dL, the Hemoglobin at stabilization (hypogonadism in men; [6]) was 15.70 g/dL and the “side effects when not consistent with both TC and anastrozole dosing” value (hypogonadism in men; inconsistent timing and dosage) was “frequently experienced acne, mood swings, and elevating hemoglobin”. For the same compound, the “polycythemia (need to donate blood)” value (hypogonadism in men; once a patient reached stability on treatment) was “eliminated”, the “chief complaints/symptoms (Table 1) as reported by the patient” value (hypogonadism in men; once stable on treatment) was “well-controlled” and the “average decrease in A1c” value (hypogonadism in men; patients not previously on TRT) was 0.39%. For the same compound, the “average time longer to stabilize” value (hypogonadism in men; patients previously on TRT in any form versus patients never on TRT) was 9.7 months, the “average decrease in A1c” value (hypogonadism in men; patients previously on TRT) was 0.14% and the “TT level at stabilization (range)” value (hypogonadism in men; patients never on TRT) was 641 to 1051 ng/dL. For the same compound, the “TT level at stabilization (range)” value (hypogonadism in men; patients previously on TRT) was 605 to 1020 ng/dL and the half-life [2] was 170 to 190 h.

Reference: US20250073245A1, “COMPOSITION AND METHOD OF TREATING HYPOGONADISM IN MEN” (priority 2023, published 2025)
